Laboratory results from patent US9012403B2, “Peptides as active agents to stabilize biological barriers” (XiberScience GmbH, priority 2010, dated 2015).
Marks after values point to notes of the source that are not given here.

Tests used:
Format in all cases: cell-based
GEF [1] = test: GEF-activity in membrane fractions of Caco-2 cells (RhoGEF Exchange Assay)
Experimental: (§1) To measure the GEF-inhibitory effect, the following cell lines were used: Caco-2 (epithelial cells from adeno-carcinoma), ECV304 (epithelial cells from bladder carcinoma) and HpMec (endothelial cells, immortalized pulmonary micro-vascular cells). All cells were grown at standard conditions (37° C., 5% CO2 and 95% relative humidity (rH)). Culture Medium used for Caco-2: DMEM+1 mM sodium pyruvate+20% FCS+1% Penicillin Streptomycin; for ECV 304: RPMI 1640+10% FCS+1% Penicillin Streptomycin; and for HpMec: IMDM+25 mM Hepes+10% Human Serum+1% Penicillin Streptomycin+1% L-Glutamine+ECGS/Heparin 2 ml. 4 h before the experiment, cells were starved by serum withdrawal. To induce GEF-activity, cells were stimulated with thrombin, lipopolysaccharide (LPS) or PMA for the indicated time in presence or absence of 50 μg/ml XIB1-a or XIB1-b. After stimulation, membrane fractions were prepared by using the commercial available “Compartemental Protein Extraction Kit” from Biochain institutes. Membrane fractions were prepared according to the manufacturer instructions. GEF-activity in membrane lysates was determined by using “RhoGEF Exchange Assay Biochem Kit” from Cytoskeleton Inc. according to manufacturer instructions. GEF-activity was measured as fluorescence at using the Fluoroskan Ascent FL 2.6 from Thermo Electron Corporation. The excitation Filter wavelength was set at 355 nm and the emission filter wavelength at 460 nm.

[2] = tested on: Phosphorylated Myosin Light Chain (MLC) and actin stress fibers; test: MLC phosphorylation and actin stress fiber formation in ECV304 cells (microscopy score)
Experimental: (§2) To measure MLC phosphorylation and actin stress fiber formation, the following cell lines were used: Caco-2, ECV304 and HpMec. All cells were grown at standard conditions (37° C., 5% CO2 and 95% rH). Culture Medium used: for Caco-2: DMEM+1 mM sodium pyruvate+20% FCS+1% Penicillin Streptomycin; for ECV 304: RPMI 1640+10% FCS+1% Penicillin Streptomycin; and for HpMec: IMDM+25 mM Hepes+10% Human Serum+1% Penicillin Streptomycin+1% L-Glutamine+ECGS/Heparin 2 ml. 4 h before the experiment, cells were starved by serum withdrawal. To induce GEF-activity, cells were stimulated with thrombin, LPS or PMA for the indicated time in presence or absence of 50 μg/ml XIB1-a or XIB1-b. After stimulation, cells were fixed using 4% PFA. Phospho MLC was detected by using the “rabbit anti phosphor-myosin light chain antibody” from Chemicon in a concentration of 3 μl/ml in PBS (Gibco) supplemented with 0.1% Triton X-100. As detection antibody, the Alexa 448 tagged “anti Rabbit IgG Antibody” from Invitrogen was used in a concentration of 0.5 μl/ml in PBS (Gibco) supplemented with 0.1% Triton X-100. Aktin was detected using TRITC-labeled Phalloidin in a concentration of 0.5 μl/ml in PBS (Gibco) supplemented with 0.1% Triton. Stained cells were analyzed by using a Zeiss Laser Scan microscope. Evaluation of the cyto-skeletal activation was performed by 2 independent observers that were blinded to the conditions. Evaluation criteria were set as follows:
(§3) Actin: parallel actin bundles absent=0; distinct bundle formation=1; prominent parallel bundles=2; Phospho-MLC: present at cell poles=0; slight co-localization with actin bundles=1; prominent co-localization with actin bundles=2

[3] = tested on: Phosphorylated Myosin Light Chain (MLC) and actin stress fibers; test: MLC phosphorylation and actin stress fiber formation in HpMec cells (microscopy score)
Experimental: as §2, §3

GTP-bound RhoA = test: GTP-associated active RhoA in Caco-2 membrane fraction (western blot)
Experimental: To measure the GTP-associated active RhoA, the following cell lines were used: Caco-2, ECV304 and HpMec. All cells were grown at standard conditions (37° C., 5% CO2 and 95% rH). 4 h before the experiment, cells were starved by serum withdrawal. To induce GEF-activity, cells were stimulated with thrombin, LPS or PMA for the indicated time in presence or absence of 50 μg/ml XIB1-a or XIB1-b. After stimulation, membrane fractions were prepared by using the commercial available “Compartemental Protein Extraction Kit” from Biochain Institutes. Membrane fractions were prepared according to the manufacturer instructions. The membrane fraction was separated on 15% polyacrylamide gel according to standard procedures of gel electrophoresis. The gels were afterwards blotted on a nitrocellulose membrane according to standard procedures of western blotting. GTP-bound RhoA was detected using RhoA-GTP monoclonal antibody from NewEast Inc. in a dilution of 1:5000. Protein bands were analyzed with the Dolphin-1D Gel analysis system (Wealtec).

GEF [4] = test: GEF-activity in membrane fractions of HpMec cells (RhoGEF Exchange Assay); conditions: HpMec
Experimental: as §1

GEF [5] = test: GEF-activity in membrane fractions of ECV304 cells (RhoGEF Exchange Assay)
Experimental: as §1

[6] = CaCo-2, PMA 1 μg/ml, 1 min, with or without peptide 50 μg/ml
[7] = CaCo-2, PMA 1 μg/ml, 5 min, with or without peptide 50 μg/ml
[8] = CaCo-2, no stimulus, 1 min, peptide 50 μg/ml
[9] = CaCo-2, no stimulus, 5 min, peptide 50 μg/ml
[10] = ECV 304, LPS 100 μg/ml, 1 min, with or without peptide 50 μg/ml
[11] = ECV 304, LPS 100 μg/ml, 5 min, with or without peptide 50 μg/ml
[12] = ECV 304, Thrombin 1 U/ml, 1 min, with or without peptide 50 μg/ml
[13] = ECV 304, Thrombin 1 U/ml, 5 min, with or without peptide 50 μg/ml
[14] = ECV 304, no stimulus, 1 min, peptide 50 μg/ml
[15] = Thrombin 1 U/ml, 1 min, with or without peptide 50 μg/ml
[16] = Thrombin 1 U/ml, 5 min, with or without peptide 50 μg/ml
[17] = no stimulus, 1 min, peptide 50 μg/ml
[18] = no stimulus, 5 min, peptide 50 μg/ml
[19] = ECV 304, no stimulus, 5 min, peptide 50 μg/ml

Sequence	GEF-activity, relative values compared to unstimulated control (Mean) (GEF [1]; [6])	GEF-activity, relative values compared to unstimulated control (Mean) (GEF [1]; [7])	GEF-activity, relative values compared to unstimulated control (Mean) (GEF [1]; [8])	GEF-activity, relative values compared to unstimulated control (Mean) (GEF [1]; [9])	MLC phosphorylation and actin stress fiber formation, evaluation score (Mean) [2, 10]	MLC phosphorylation and actin stress fiber formation, evaluation score (Mean) [2, 11]	MLC phosphorylation and actin stress fiber formation, evaluation score (Mean) [2, 12]	MLC phosphorylation and actin stress fiber formation, evaluation score (Mean) [2, 13]	MLC phosphorylation and actin stress fiber formation, evaluation score (Mean) [3, 15]	MLC phosphorylation and actin stress fiber formation, evaluation score (Mean) [3, 16]	MLC phosphorylation and actin stress fiber formation, evaluation score (Mean) [3, 17]	MLC phosphorylation and actin stress fiber formation, evaluation score (Mean) [3, 18]	GTP-bound RhoA, relative values compared to unstimulated control (Mean) (GTP-bound RhoA; [6])	GTP-bound RhoA, relative values compared to unstimulated control (Mean) (GTP-bound RhoA; [7])	GTP-bound RhoA, relative values compared to unstimulated control (Mean) (GTP-bound RhoA; [8])	GTP-bound RhoA, relative values compared to unstimulated control (Mean) (GTP-bound RhoA; [9])	GEF-activity, relative values compared to unstimulated control (Mean) (GEF [4]; [15])	GEF-activity, relative values compared to unstimulated control (Mean) (GEF [4]; [16])	GEF-activity, relative values compared to unstimulated control (Mean) (GEF [4]; [17])	GEF-activity, relative values compared to unstimulated control (Mean) (GEF [4]; [18])	also measured
GRRPGGASGG (/note=“Description of artificial sequence cingulin-derived peptide XIB1-a”)	1.4*	1.5	1	1	1*	1*	1*	1*	1*	0.3*	0	0	1.4*	1.3*	1	1	1.8*	2.1*	1	1	MLC phosphorylation and actin stress fiber formation, evaluation score (Mean) [2, 14]: 1; MLC phosphorylation and actin stress fiber formation, evaluation score (Mean) ([2]; ECV 304, no stimulus, 1 min, peptide 50 μg/ml, listed as XIB-a): 0; GEF-activity, relative values compared to unstimulated control (Mean) (GEF [5]; [10]): 1.7*; GEF-activity, relative values compared to unstimulated control (Mean) (GEF [5]; [11]): 1.3*; GEF-activity, relative values compared to unstimulated control (Mean) (GEF [5]; [12]): 2.5*; GEF-activity, relative values compared to unstimulated control (Mean) (GEF [5]; [13]): 1.5*; GEF-activity, relative values compared to unstimulated control (Mean) (GEF [5]; [14]): 1; GEF-activity, relative values compared to unstimulated control (Mean) (GEF [5]; [19]): 1
GRRPLGGISGG (/note=“Description of artificial sequence cingulin-derived peptide XIB1-b”)	1.4*	1.5	1	1	1*	1*	1*	1*	1*	0.3*	0	0	1.4*	1.3*	1	1	1.8*	2.1*	1	1	GEF-activity, relative values compared to unstimulated control (Mean) (GEF [5]; [10]): 1.7*; GEF-activity, relative values compared to unstimulated control (Mean) (GEF [5]; [11]): 1.3*; GEF-activity, relative values compared to unstimulated control (Mean) (GEF [5]; [12]): 2.5*; GEF-activity, relative values compared to unstimulated control (Mean) (GEF [5]; [13]): 1.5*; GEF-activity, relative values compared to unstimulated control (Mean) (GEF [5]; [14]): 1; GEF-activity, relative values compared to unstimulated control (Mean) (GEF [5]; [19]): 1
